“And” between values parts separate entries of the source, which are not always exact repeats. Equal values may be shown once. Numbers after ± are expanded uncertainties.
Assay: molar heat capacity at constant volume; xn = mol fraction of the nth substance listed
Conditions: x1 = 0.2607

N [ammonia] + O
Conditions | molar heat capacity at constant volume
601.54 K, Fluid (supercritical or subcritical phases), Mass density=301.94 kg/m3, isochoric heat capacity | 93.57 ± 3.7 J/K/mol
601.55 K, Fluid (supercritical or subcritical phases), Mass density=291.16 kg/m3, isochoric heat capacity | 90.62 ± 3.6 J/K/mol
601.56 K, Fluid (supercritical or subcritical phases), Mass density=188.05 kg/m3, isochoric heat capacity | 61.55 ± 2.9 J/K/mol
601.62 K, Fluid (supercritical or subcritical phases), Mass density=285.71 kg/m3, isochoric heat capacity | 88.9 ± 3.7 J/K/mol
601.63 K, Fluid (supercritical or subcritical phases), Mass density=299.79 kg/m3, isochoric heat capacity | 98.44 ± 3.9 J/K/mol
601.66 K, Fluid (supercritical or subcritical phases), Mass density=294.44 kg/m3, isochoric heat capacity | 99.98 ± 4 J/K/mol
601.71 K, Fluid (supercritical or subcritical phases), Mass density=285.71 kg/m3, isochoric heat capacity | 87.96 ± 3.6 J/K/mol
601.71 K, Fluid (supercritical or subcritical phases), Mass density=299.79 kg/m3, isochoric heat capacity | 95.13 ± 3.8 J/K/mol
601.75 K, Fluid (supercritical or subcritical phases), Mass density=188.05 kg/m3, isochoric heat capacity | 64.8 ± 2.6 J/K/mol
601.75 K, Fluid (supercritical or subcritical phases), Mass density=195.99 kg/m3, isochoric heat capacity | 103.89 ± 4.7 J/K/mol
601.75 K, Liquid, Isochoric heat capacity | 103.89 ± 4.2 J/K/mol
601.79 K, Fluid (supercritical or subcritical phases), Mass density=195.99 kg/m3, isochoric heat capacity | 94.8 ± 4.2 J/K/mol
601.82 K, Fluid (supercritical or subcritical phases), Mass density=294.44 kg/m3, isochoric heat capacity | 98.74 ± 4 J/K/mol
601.88 K, Fluid (supercritical or subcritical phases), Mass density=376.89 kg/m3, isochoric heat capacity | 79.03 ± 3.2 J/K/mol
601.89 K, Fluid (supercritical or subcritical phases), Mass density=195.99 kg/m3, isochoric heat capacity | 87.6 ± 4.1 J/K/mol
601.97 K, Fluid (supercritical or subcritical phases), Mass density=297.6 kg/m3, isochoric heat capacity | 100.3 ± 4 J/K/mol
601.97 K, Fluid (supercritical or subcritical phases), Mass density=376.89 kg/m3, isochoric heat capacity | 76.68 ± 3.1 J/K/mol
601.98 K, Fluid (supercritical or subcritical phases), Mass density=195.99 kg/m3, isochoric heat capacity | 77.82 ± 3.2 J/K/mol
602.05 K, Fluid (supercritical or subcritical phases), Mass density=271.09 kg/m3, isochoric heat capacity | 106.73 ± 4.3 J/K/mol
602.05 K, Fluid (supercritical or subcritical phases), Mass density=376.89 kg/m3, isochoric heat capacity | 80.09 ± 3.2 J/K/mol
602.05 K, Liquid, Isochoric heat capacity | 106.73 ± 4.3 J/K/mol
602.08 K, Fluid (supercritical or subcritical phases), Mass density=271.09 kg/m3, isochoric heat capacity | 104.24 ± 4.2 J/K/mol
602.09 K, Fluid (supercritical or subcritical phases), Mass density=271.09 kg/m3, isochoric heat capacity | 100.44 ± 4.1 J/K/mol
602.12 K, Fluid (supercritical or subcritical phases), Mass density=271.09 kg/m3, isochoric heat capacity | 96.3 ± 3.9 J/K/mol
602.13 K, Fluid (supercritical or subcritical phases), Mass density=307.35 kg/m3, isochoric heat capacity | 96.93 ± 3.9 J/K/mol
602.14 K, Fluid (supercritical or subcritical phases), Mass density=312.91 kg/m3, isochoric heat capacity | 83.15 ± 3.3 J/K/mol
602.22 K, Fluid (supercritical or subcritical phases), Mass density=312.91 kg/m3, isochoric heat capacity | 82.81 ± 3.3 J/K/mol
602.23 K, Fluid (supercritical or subcritical phases), Mass density=307.35 kg/m3, isochoric heat capacity | 92.38 ± 3.7 J/K/mol
602.24 K, Fluid (supercritical or subcritical phases), Mass density=271.09 kg/m3, isochoric heat capacity | 93.92 ± 3.8 J/K/mol
602.26 K, Fluid (supercritical or subcritical phases), Mass density=205.58 kg/m3, isochoric heat capacity | 105.31 ± 4.3 J/K/mol
602.26 K, Liquid, Isochoric heat capacity | 105.31 ± 4.2 J/K/mol
602.3 K, Fluid (supercritical or subcritical phases), Mass density=312.91 kg/m3, isochoric heat capacity | 81.1 ± 3.2 J/K/mol
602.31 K, Fluid (supercritical or subcritical phases), Mass density=205.58 kg/m3, isochoric heat capacity | 100.51 ± 4.1 J/K/mol
602.38 K, Fluid (supercritical or subcritical phases), Mass density=271.09 kg/m3, isochoric heat capacity | 89.02 ± 3.7 J/K/mol
602.39 K, Fluid (supercritical or subcritical phases), Mass density=205.58 kg/m3, isochoric heat capacity | 86.66 ± 3.6 J/K/mol
602.39 K, Fluid (supercritical or subcritical phases), Mass density=312.91 kg/m3, isochoric heat capacity | 81.72 ± 3.3 J/K/mol
602.4 K, Fluid (supercritical or subcritical phases), Mass density=307.35 kg/m3, isochoric heat capacity | 94.4 ± 3.8 J/K/mol
602.45 K, Liquid, Isochoric heat capacity | 105.13 ± 4.2 J/K/mol
602.48 K, Fluid (supercritical or subcritical phases), Mass density=205.58 kg/m3, isochoric heat capacity | 75.47 ± 3.1 J/K/mol
602.48 K, Fluid (supercritical or subcritical phases), Mass density=243.98 kg/m3, isochoric heat capacity | 100.07 ± 4 J/K/mol
602.48 K, Fluid (supercritical or subcritical phases), Mass density=260.02 kg/m3, isochoric heat capacity | 100.07 ± 4 J/K/mol
602.48 K, Fluid (supercritical or subcritical phases), Mass density=307.35 kg/m3, isochoric heat capacity | 89.36 ± 3.6 J/K/mol
602.48 K, Fluid (supercritical or subcritical phases), Mass density=312.91 kg/m3, isochoric heat capacity | 84.69 ± 3.4 J/K/mol
602.48 K, Fluid (supercritical or subcritical phases), Mass density=342.18 kg/m3, isochoric heat capacity | 86.56 ± 3.5 J/K/mol
602.48 K, Fluid (supercritical or subcritical phases), Mass density=376.89 kg/m3, isochoric heat capacity | 81.21 ± 3.2 J/K/mol
602.48 K, Fluid (supercritical or subcritical phases), Mass density=456.58 kg/m3, isochoric heat capacity | 66.2 ± 2.6 J/K/mol
602.51 K, Fluid (supercritical or subcritical phases), Mass density=271.09 kg/m3, isochoric heat capacity | 86.04 ± 3.5 J/K/mol
602.56 K, Fluid (supercritical or subcritical phases), Mass density=205.58 kg/m3, isochoric heat capacity | 77.07 ± 3.2 J/K/mol
602.56 K, Fluid (supercritical or subcritical phases), Mass density=243.98 kg/m3, isochoric heat capacity | 96.22 ± 3.9 J/K/mol
602.56 K, Fluid (supercritical or subcritical phases), Mass density=260.02 kg/m3, isochoric heat capacity | 96.22 ± 3.9 J/K/mol
602.56 K, Fluid (supercritical or subcritical phases), Mass density=307.35 kg/m3, isochoric heat capacity | 92.18 ± 3.7 J/K/mol
602.56 K, Fluid (supercritical or subcritical phases), Mass density=342.18 kg/m3, isochoric heat capacity | 87.35 ± 3.5 J/K/mol
602.62 K, Fluid (supercritical or subcritical phases), Mass density=195.99 kg/m3, isochoric heat capacity | 72.88 ± 2.9 J/K/mol
602.65 K, Fluid (supercritical or subcritical phases), Mass density=243.98 kg/m3, isochoric heat capacity | 98.1 ± 3.9 J/K/mol
602.65 K, Fluid (supercritical or subcritical phases), Mass density=260.02 kg/m3, isochoric heat capacity | 98.1 ± 3.9 J/K/mol
602.65 K, Fluid (supercritical or subcritical phases), Mass density=376.89 kg/m3, isochoric heat capacity | 81.09 ± 3.2 J/K/mol
602.65 K, Fluid (supercritical or subcritical phases), Mass density=456.58 kg/m3, isochoric heat capacity | 68.55 ± 2.7 J/K/mol
602.74 K, Fluid (supercritical or subcritical phases), Mass density=205.58 kg/m3, isochoric heat capacity | 73.93 ± 3 J/K/mol
602.74 K, Fluid (supercritical or subcritical phases), Mass density=214.83 kg/m3, isochoric heat capacity | 106.91 ± 4.4 J/K/mol
602.74 K, Fluid (supercritical or subcritical phases), Mass density=243.98 kg/m3, isochoric heat capacity | 94.92 ± 3.8 J/K/mol
602.74 K, Fluid (supercritical or subcritical phases), Mass density=260.02 kg/m3, isochoric heat capacity | 94.92 ± 3.8 J/K/mol
602.74 K, Fluid (supercritical or subcritical phases), Mass density=342.18 kg/m3, isochoric heat capacity | 87.43 ± 3.5 J/K/mol
602.74 K, Fluid (supercritical or subcritical phases), Mass density=376.89 kg/m3, isochoric heat capacity | 79.29 ± 3.2 J/K/mol
602.74 K, Liquid, Isochoric heat capacity | 106.91 ± 4.3 J/K/mol
602.82 K, Fluid (supercritical or subcritical phases), Mass density=214.83 kg/m3, isochoric heat capacity | 102.73 ± 4.2 J/K/mol
602.82 K, Fluid (supercritical or subcritical phases), Mass density=456.58 kg/m3, isochoric heat capacity | 67.55 ± 2.7 J/K/mol
602.85 K, Fluid (supercritical or subcritical phases), Mass density=218.92 kg/m3, isochoric heat capacity | 108.5 ± 4.5 J/K/mol
602.85 K, Liquid, Isochoric heat capacity | 108.5 ± 4.3 J/K/mol
602.91 K, Fluid (supercritical or subcritical phases), Mass density=214.83 kg/m3, isochoric heat capacity | 94.28 ± 4.2 J/K/mol
602.91 K, Fluid (supercritical or subcritical phases), Mass density=218.92 kg/m3, isochoric heat capacity | 99.09 ± 4 J/K/mol
602.91 K, Fluid (supercritical or subcritical phases), Mass density=243.98 kg/m3, isochoric heat capacity | 106.2 ± 4.3 J/K/mol
602.91 K, Fluid (supercritical or subcritical phases), Mass density=311.19 kg/m3, isochoric heat capacity | 90.5 ± 3.6 J/K/mol
602.91 K, Fluid (supercritical or subcritical phases), Mass density=342.18 kg/m3, isochoric heat capacity | 82.9 ± 3.3 J/K/mol
602.91 K, Liquid, Isochoric heat capacity | 106.2 ± 4.2 J/K/mol
602.96 K, Fluid (supercritical or subcritical phases), Mass density=224.53 kg/m3, isochoric heat capacity | 111.03 ± 4.5 J/K/mol
602.96 K, Fluid (supercritical or subcritical phases), Mass density=230.31 kg/m3, isochoric heat capacity | 111.35 ± 4.7 J/K/mol
602.96 K, Liquid, Isochoric heat capacity | 111.35 ± 4.5 J/K/mol and 111.03 ± 4.4 J/K/mol
602.97 K, Fluid (supercritical or subcritical phases), Mass density=227.54 kg/m3, isochoric heat capacity | 112.45 ± 4.7 J/K/mol
602.97 K, Liquid, Isochoric heat capacity | 112.45 ± 4.5 J/K/mol
602.99 K, Fluid (supercritical or subcritical phases), Mass density=214.83 kg/m3, isochoric heat capacity | 91.33 ± 3.7 J/K/mol
602.99 K, Fluid (supercritical or subcritical phases), Mass density=224.53 kg/m3, isochoric heat capacity | 109.57 ± 4.4 J/K/mol
